Assay results reported in patent USRE48805E1, “Method for cancer targeting treatment and detection of arginine using albumin-binding arginine deiminase fusion protein” (Vision Global Holdings Ltd., priority 2013, dated 2021).

Tests used:
[1] = test system: Mia-paca-2 pancreatic cancer cell xenografts; assay: In vivo efficacy on Mia-paca-2 pancreatic cancer cell xenografts; parameters: species or system Nude balb/c mice (human pancreatic cancer xenograft); details: 100 mg/kg once a week, intraperitoneal, end of the time course
Description: Nude balb/c mice (4-6 weeks) are used and they are allowed to acclimatize for a week before the treatment. Mice are inoculated subcutaneously with 2×10^6 cancer cells in 100 μl of 1:1 PBS:Matrigel. Matrigel is used to augment the growth of tumors. Two weeks later, the mice are randomly separated into four groups of 4 animals in each group. Mice are intraperitoneally administered with PBS (control), AAD (5 U; twice a week), Gemcitabine, Gem (100 mg/kg; once a week) or AAD+Gem (a combination of both AAD and Gem) in 200 μl PBS. Tumor size is measured by caliper and tumor volume is calculated using formula: (length×width^2)/2. Body weight is measured every week. After the mice are sacrificed by end of the time course, the tumors are excised and weighed. […] The difference in the tumor size between control and AAD fusion protein-treatment group is about 60% at Day 28.

[2] = test system: 22Rv1 prostate cancer cell xenografts; assay: In vivo efficacy on 22Rv1 prostate cancer cell xenografts; parameters: species or system Nude balb/c mice (human prostate cancer xenograft); details: 10 mg/kg once a week, intraperitoneal
Description: Nude balb/c mice (4-6 weeks) are used and they are allowed to acclimatize for a week before the treatment. Mice are inoculated subcutaneously with 3×10^6 cancer cells in 100 μl PBS. Two weeks later, the mice are randomly separated into four groups of 5 animals in each group. Mice are intraperitoneally administered with PBS (control), AAD (5 U; twice a week), Docetaxel, DTX (10 mg/kg; once a week) or AAD+DTX (a combination of both AAD and DTX) in 200 ul PBS. Tumor size is measured by caliper and tumor volume is calculated using formula: (length×width^2)/2. Body weight is measured every week. After the mice are sacrificed by end of the time course, the tumors are excised and weighed.
The difference in the tumor size between control and AAD fusion protein- or DTX-treatment groups are about 55% and 54% at Day 22, respectively. Besides, the combination of AAD fusion protein and DTX-treatment group has a synergistic effect on tumor growth inhibition. Tumor growth of the combination treatment group is inhibited by about 94% when compared to that of the control group.

Compound	tumor size compared to control [1]	difference in the tumor size between control and DTX-treatment group ([2]; Day 22) [%]	tumor size compared to control ([2]; end of the time course)
Nc1ccn([C@@H]2O[C@H](CO)[C@@H](O)C2(F)F)c(=O)n1 [Gemcitabine]	significantly lower than that in control		
CC(=O)O[C@@]12CO[C@@H]1C[C@H](O)[C@@]1(C)C(=O)[C@H](O)C3=C(C)[C@@H](OC(=O)[C@H](O)[C@@H](NC(=O)OC(C)(C)C)c4ccccc4)C[C@@](O)([C@@H](OC(=O)c4ccccc4)[C@H]21)C3(C)C [docetaxel]		~54	significantly lower than that in control
